Positions of bridges follow the written chain, without caps; N, C: chain ends. Residues, ends and D or L forms follow the SMILES beside them.

The results in this text go back to patent publication US9340590B2 (priority 2011, dated 2016).

What all share (experiment): cell-based
In one experiment the target is hNav1.7 (Homo sapiens, UniProt Q15858). Type of experiment: cell-based. The following applies: IonWorks Quattro; clamped to −110 mV, depolarized to −10 mV, 5 min after compound; n=2; read-out: IWQ Use Nav1.7. (In general: In patch-clamp work, channel activity is measured electrically.)
In the next experiment the target is hNav1.5 (Homo sapiens, UniProt Q14524). Conditions: IonWorks Quattro; clamped to −110 mV, depolarized to −10 mV, 5 min after compound; n=2; read-out: IWQ Use Nav1.5.
Sequence of hNav1.5 (Q14524 whole entry, looked up): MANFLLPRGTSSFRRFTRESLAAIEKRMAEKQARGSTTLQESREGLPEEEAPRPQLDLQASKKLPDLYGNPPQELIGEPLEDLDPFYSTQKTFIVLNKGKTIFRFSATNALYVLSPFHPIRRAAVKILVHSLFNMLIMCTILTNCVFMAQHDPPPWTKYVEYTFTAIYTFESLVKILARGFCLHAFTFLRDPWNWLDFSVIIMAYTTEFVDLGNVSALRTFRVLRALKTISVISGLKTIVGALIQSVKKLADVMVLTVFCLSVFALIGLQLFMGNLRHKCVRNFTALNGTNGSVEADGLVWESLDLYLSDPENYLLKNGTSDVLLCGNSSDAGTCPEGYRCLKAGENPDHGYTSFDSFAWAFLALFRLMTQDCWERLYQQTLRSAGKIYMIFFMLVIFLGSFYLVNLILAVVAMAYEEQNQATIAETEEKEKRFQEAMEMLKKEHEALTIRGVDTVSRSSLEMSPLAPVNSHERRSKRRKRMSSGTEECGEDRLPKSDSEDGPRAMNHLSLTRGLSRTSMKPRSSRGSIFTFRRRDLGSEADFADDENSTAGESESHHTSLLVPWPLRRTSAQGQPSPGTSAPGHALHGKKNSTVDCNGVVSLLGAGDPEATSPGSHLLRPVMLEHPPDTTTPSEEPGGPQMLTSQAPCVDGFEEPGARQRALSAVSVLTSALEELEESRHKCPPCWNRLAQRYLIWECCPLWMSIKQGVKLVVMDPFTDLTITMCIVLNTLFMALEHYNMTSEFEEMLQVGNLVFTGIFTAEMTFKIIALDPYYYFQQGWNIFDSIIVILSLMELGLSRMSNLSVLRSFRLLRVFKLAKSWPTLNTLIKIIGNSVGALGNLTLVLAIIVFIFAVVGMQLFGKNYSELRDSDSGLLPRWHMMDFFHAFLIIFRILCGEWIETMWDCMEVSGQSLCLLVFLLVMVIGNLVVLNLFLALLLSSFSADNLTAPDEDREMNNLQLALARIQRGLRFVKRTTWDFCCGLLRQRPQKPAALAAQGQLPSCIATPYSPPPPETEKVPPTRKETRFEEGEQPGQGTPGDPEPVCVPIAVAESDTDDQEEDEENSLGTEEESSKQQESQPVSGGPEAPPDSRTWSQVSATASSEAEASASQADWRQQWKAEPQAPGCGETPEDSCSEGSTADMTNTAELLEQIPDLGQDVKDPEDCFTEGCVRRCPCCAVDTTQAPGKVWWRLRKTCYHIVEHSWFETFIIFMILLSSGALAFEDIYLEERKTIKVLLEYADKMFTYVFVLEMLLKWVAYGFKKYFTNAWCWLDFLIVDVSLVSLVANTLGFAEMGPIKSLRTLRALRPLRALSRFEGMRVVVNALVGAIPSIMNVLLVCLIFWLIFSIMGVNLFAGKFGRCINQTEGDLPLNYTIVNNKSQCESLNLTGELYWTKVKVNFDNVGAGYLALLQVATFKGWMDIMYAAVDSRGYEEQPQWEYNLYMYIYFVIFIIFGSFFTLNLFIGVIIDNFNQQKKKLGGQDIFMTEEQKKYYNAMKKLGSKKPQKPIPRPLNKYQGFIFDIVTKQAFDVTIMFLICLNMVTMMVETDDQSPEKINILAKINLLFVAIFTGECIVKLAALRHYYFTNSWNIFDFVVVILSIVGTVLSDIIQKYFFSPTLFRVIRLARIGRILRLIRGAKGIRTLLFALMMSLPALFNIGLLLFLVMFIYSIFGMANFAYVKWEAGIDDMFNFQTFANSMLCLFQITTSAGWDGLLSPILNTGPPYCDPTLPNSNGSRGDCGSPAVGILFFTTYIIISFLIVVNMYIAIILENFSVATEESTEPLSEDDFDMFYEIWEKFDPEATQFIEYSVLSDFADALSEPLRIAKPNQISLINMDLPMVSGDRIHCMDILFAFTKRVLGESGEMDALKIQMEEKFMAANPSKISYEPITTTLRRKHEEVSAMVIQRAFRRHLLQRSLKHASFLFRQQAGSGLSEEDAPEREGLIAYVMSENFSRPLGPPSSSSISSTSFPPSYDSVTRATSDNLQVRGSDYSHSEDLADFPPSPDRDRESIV
A further experiment addresses hNav1.3 (Homo sapiens, UniProt Q9NY46). The following applies: IonWorks Quattro; clamped to −110 mV, depolarized to −10 mV, 5 min after compound; n=2; read-out: IWQ Use Nav1.3.

Sequence of hNav1.3 (Q9NY46 whole entry, looked up): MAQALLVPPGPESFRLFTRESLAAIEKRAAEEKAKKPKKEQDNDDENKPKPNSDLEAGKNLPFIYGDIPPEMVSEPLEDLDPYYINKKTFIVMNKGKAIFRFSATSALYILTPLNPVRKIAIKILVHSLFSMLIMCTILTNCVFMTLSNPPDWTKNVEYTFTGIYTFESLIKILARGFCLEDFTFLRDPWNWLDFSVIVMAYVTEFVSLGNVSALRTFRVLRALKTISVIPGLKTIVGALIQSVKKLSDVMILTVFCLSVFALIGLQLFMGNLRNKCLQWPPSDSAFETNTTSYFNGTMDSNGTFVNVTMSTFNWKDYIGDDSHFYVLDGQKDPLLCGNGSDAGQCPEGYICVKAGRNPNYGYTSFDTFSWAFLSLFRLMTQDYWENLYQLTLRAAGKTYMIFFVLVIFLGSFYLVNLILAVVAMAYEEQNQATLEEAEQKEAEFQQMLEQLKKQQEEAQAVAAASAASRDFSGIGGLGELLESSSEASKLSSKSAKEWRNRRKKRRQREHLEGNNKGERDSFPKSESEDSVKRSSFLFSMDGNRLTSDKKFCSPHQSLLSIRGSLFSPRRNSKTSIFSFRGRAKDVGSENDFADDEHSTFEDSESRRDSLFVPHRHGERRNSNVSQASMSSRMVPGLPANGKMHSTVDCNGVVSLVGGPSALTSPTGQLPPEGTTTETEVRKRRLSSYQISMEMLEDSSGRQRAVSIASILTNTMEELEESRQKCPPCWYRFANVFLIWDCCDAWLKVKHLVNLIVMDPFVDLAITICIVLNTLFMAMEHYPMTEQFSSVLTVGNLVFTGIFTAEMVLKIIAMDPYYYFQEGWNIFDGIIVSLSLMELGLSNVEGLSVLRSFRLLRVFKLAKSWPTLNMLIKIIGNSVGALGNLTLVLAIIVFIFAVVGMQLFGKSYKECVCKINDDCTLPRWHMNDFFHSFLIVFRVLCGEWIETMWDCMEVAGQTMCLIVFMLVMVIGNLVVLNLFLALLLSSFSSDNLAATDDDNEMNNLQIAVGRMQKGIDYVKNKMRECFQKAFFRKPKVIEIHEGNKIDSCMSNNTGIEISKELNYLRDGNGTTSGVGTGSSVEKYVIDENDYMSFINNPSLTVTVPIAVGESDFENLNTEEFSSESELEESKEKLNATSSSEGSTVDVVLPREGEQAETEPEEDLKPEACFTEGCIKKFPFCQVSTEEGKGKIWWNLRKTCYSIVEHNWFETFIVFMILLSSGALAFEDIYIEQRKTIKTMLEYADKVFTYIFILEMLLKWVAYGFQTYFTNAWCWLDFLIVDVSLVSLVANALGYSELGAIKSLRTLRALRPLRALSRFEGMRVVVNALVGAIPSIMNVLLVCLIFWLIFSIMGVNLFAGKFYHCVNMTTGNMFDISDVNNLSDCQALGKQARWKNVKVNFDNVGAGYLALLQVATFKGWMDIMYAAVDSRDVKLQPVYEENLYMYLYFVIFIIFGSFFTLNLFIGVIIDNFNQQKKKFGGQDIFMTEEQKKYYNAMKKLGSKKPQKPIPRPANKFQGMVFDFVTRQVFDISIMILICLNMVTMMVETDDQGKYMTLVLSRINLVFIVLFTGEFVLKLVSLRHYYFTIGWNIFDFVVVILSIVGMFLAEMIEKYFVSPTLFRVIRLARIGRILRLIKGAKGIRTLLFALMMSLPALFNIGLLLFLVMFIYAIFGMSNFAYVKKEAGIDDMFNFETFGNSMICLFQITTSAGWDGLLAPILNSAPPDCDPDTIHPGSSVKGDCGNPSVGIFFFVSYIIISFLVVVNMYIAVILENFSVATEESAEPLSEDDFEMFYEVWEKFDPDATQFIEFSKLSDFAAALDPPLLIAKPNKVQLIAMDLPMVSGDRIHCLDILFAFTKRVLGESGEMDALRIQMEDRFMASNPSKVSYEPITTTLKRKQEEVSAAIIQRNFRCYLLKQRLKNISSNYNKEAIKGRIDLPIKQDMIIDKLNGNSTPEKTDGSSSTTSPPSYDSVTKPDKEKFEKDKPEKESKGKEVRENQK

Regarding `CC[C@H](C)[C@@H]1NC(=O)[C@@H]2CSSC[C@@H]3NC(=O)[C@H](C(C)C)NC(=O)[C@H](CC(C)C)NC(=O)[C@H](CC(N)=O)NC(=O)[C@@H]4CCCN4C(=O)[C@H](CCCNC(=N)N)NC(=O)[C@H](CSSC[C@H](NC(=O)[C@@H](N)CC(=O)O)C(=O)N[C@@H](CC(C)C)C(=O)NCC(=O)N[C@@H](Cc4c[nH]cn4)C(=O)N[C@@H](CCSC)C(=O)N[C@@H](CCCNC(=N)N)C(=O)N[C@@H](CCCCN)C(=O)N2)NC(=O)[C@H](CSSC[C@@H](C(=O)N[C@@H](CCCCN)C(=O)N[C@@H](Cc2ccc(O)cc2)C(=O)N[C@H](C(=O)N[C@@H](Cc2ccccc2)C(N)=O)C(C)C)NC(=O)[C@H](Cc2c[nH]c4ccccc24)NC(=O)[C@H](CCCCN)NC(=O)[C@H](Cc2c[nH]cn2)NC(=O)[C@H]([C@@H](C)O)NC(=O)[C@H](CCCNC(=N)N)NC(=O)[C@H](CO)NC3=O)NC(=O)[C@H](CCCCN)NC(=O)[C@H](CC(=O)O)NC(=O)[C@H](CC(N)=O)NC(=O)[C@H](CC(=O)O)NC(=O)[C@@H]2CCCN2C1=O` [SEQ ID NO: 266] (H-DCLGHMRKCIPDNDKCCRPNLVCSRTHKWCKYVF-NH2; disulfide 2-17, 9-23, 16-30), the figures for the IC50 at hNav1.7, at hNav1.5 and at hNav1.3 were 4.74 µM, 6.62 µM and 8.37 µM, respectively.
As to `CC[C@H](C)[C@@H]1NC(=O)[C@@H]2CSSC[C@@H]3NC(=O)[C@H](C(C)C)NC(=O)[C@H](CC(C)C)NC(=O)[C@H](CC(N)=O)NC(=O)[C@@H]4CCCN4C(=O)[C@H](CCCNC(=N)N)NC(=O)[C@H](CSSC[C@H](NC(=O)[C@@H](N)CC(=O)O)C(=O)N[C@@H](CC(C)C)C(=O)NCC(=O)N[C@@H](CCSC)C(=O)N[C@@H](CCSC)C(=O)N[C@@H](CCCNC(=N)N)C(=O)N[C@@H](CCCCN)C(=O)N2)NC(=O)[C@H](CSSC[C@@H](C(=O)N[C@@H](CCCCN)C(=O)N[C@@H](Cc2ccc(O)cc2)C(=O)N[C@H](C(=O)N[C@@H](Cc2ccccc2)C(N)=O)C(C)C)NC(=O)[C@H](Cc2c[nH]c4ccccc24)NC(=O)[C@H](CCCCN)NC(=O)[C@H](Cc2cnc[nH]2)NC(=O)[C@H]([C@@H](C)O)NC(=O)[C@H](CCCNC(=N)N)NC(=O)[C@H](CO)NC3=O)NC(=O)[C@H](CCCCN)NC(=O)[C@H](CC(=O)O)NC(=O)[C@H](CC(N)=O)NC(=O)[C@H](CC(=O)O)NC(=O)[C@@H]2CCCN2C1=O` [SEQ ID NO: 268] (H-DCLGMMRKCIPDNDKCCRPNLVCSRTHKWCKYVF-NH2; disulfide 2-17, 9-23, 16-30), the IC50 was 0.1 µM at hNav1.7, 12.8 µM at hNav1.5 and 0.24 µM on hNav1.3.
Regarding `CC[C@H](C)[C@@H]1NC(=O)[C@@H]2CSSC[C@@H]3NC(=O)[C@H](C(C)C)NC(=O)[C@H](CC(C)C)NC(=O)[C@H](CC(N)=O)NC(=O)[C@@H]4CCCN4C(=O)[C@H](CCCNC(=N)N)NC(=O)[C@H](CSSC[C@H](NC(=O)[C@@H](N)CC(=O)O)C(=O)N[C@@H](CC(C)C)C(=O)NCC(=O)N4CCC[C@H]4C(=O)N[C@@H](CCSC)C(=O)N[C@@H](CCCNC(=N)N)C(=O)N[C@@H](CCCCN)C(=O)N2)NC(=O)[C@H](CSSC[C@@H](C(=O)N[C@@H](CCCCN)C(=O)N[C@@H](Cc2ccc(O)cc2)C(=O)N[C@H](C(=O)N[C@@H](Cc2ccccc2)C(N)=O)C(C)C)NC(=O)[C@H](Cc2c[nH]c4ccccc24)NC(=O)[C@H](CCCCN)NC(=O)[C@H](Cc2c[nH]cn2)NC(=O)[C@H]([C@@H](C)O)NC(=O)[C@H](CCCNC(=N)N)NC(=O)[C@H](CO)NC3=O)NC(=O)[C@H](CCCCN)NC(=O)[C@H](CC(=O)O)NC(=O)[C@H](CC(N)=O)NC(=O)[C@H](CC(=O)O)NC(=O)[C@@H]2CCCN2C1=O` [SEQ ID NO: 269] (H-DCLGPMRKCIPDNDKCCRPNLVCSRTHKWCKYVF-NH2; disulfide 2-17, 9-23, 16-30), the figures for the IC50 at hNav1.7, at hNav1.5 and on hNav1.3 were 1.17 µM, 6.61 µM and 1.73 µM, respectively.
Taken in the same sequence, the figures for `CC[C@H](C)[C@@H]1NC(=O)[C@@H]2CSSC[C@@H]3NC(=O)[C@H](C(C)C)NC(=O)[C@H](CC(C)C)NC(=O)[C@H](CC(N)=O)NC(=O)[C@@H]4CCCN4C(=O)[C@H](CCCNC(=N)N)NC(=O)[C@H](CSSC[C@H](NC(=O)[C@@H](N)CC(=O)O)C(=O)N[C@@H](CC(C)C)C(=O)NCC(=O)N[C@@H]([C@@H](C)O)C(=O)N[C@@H](CCSC)C(=O)N[C@@H](CCCNC(=N)N)C(=O)N[C@@H](CCCCN)C(=O)N2)NC(=O)[C@H](CSSC[C@@H](C(=O)N[C@@H](CCCCN)C(=O)N[C@@H](Cc2ccc(O)cc2)C(=O)N[C@H](C(=O)N[C@@H](Cc2ccccc2)C(N)=O)C(C)C)NC(=O)[C@H](Cc2c[nH]c4ccccc24)NC(=O)[C@H](CCCCN)NC(=O)[C@H](Cc2c[nH]cn2)NC(=O)[C@H]([C@@H](C)O)NC(=O)[C@H](CCCNC(=N)N)NC(=O)[C@H](CO)NC3=O)NC(=O)[C@H](CCCCN)NC(=O)[C@H](CC(=O)O)NC(=O)[C@H](CC(N)=O)NC(=O)[C@H](CC(=O)O)NC(=O)[C@@H]2CCCN2C1=O` [SEQ ID NO: 270] (H-DCLGTMRKCIPDNDKCCRPNLVCSRTHKWCKYVF-NH2; disulfide 2-17, 9-23, 16-30) were 1.22 µM, 15.2 µM and 2.19 µM.
Taken in the same sequence, the figures for `CC[C@H](C)[C@@H]1NC(=O)[C@@H]2CSSC[C@@H]3NC(=O)[C@H](C(C)C)NC(=O)[C@H](CC(C)C)NC(=O)[C@H](CC(N)=O)NC(=O)[C@@H]4CCCN4C(=O)[C@H](CCCNC(=N)N)NC(=O)[C@H](CSSC[C@H](NC(=O)[C@@H](N)CC(=O)O)C(=O)N[C@@H](CC(C)C)C(=O)NCC(=O)N[C@@H](Cc4ccc(O)cc4)C(=O)N[C@@H](CCSC)C(=O)N[C@@H](CCCNC(=N)N)C(=O)N[C@@H](CCCCN)C(=O)N2)NC(=O)[C@H](CSSC[C@@H](C(=O)N[C@@H](CCCCN)C(=O)N[C@@H](Cc2ccc(O)cc2)C(=O)N[C@H](C(=O)N[C@@H](Cc2ccccc2)C(N)=O)C(C)C)NC(=O)[C@H](Cc2c[nH]c4ccccc24)NC(=O)[C@H](CCCCN)NC(=O)[C@H](Cc2c[nH]cn2)NC(=O)[C@H]([C@@H](C)O)NC(=O)[C@H](CCCNC(=N)N)NC(=O)[C@H](CO)NC3=O)NC(=O)[C@H](CCCCN)NC(=O)[C@H](CC(=O)O)NC(=O)[C@H](CC(N)=O)NC(=O)[C@H](CC(=O)O)NC(=O)[C@@H]2CCCN2C1=O` [SEQ ID NO: 271] (H-DCLGYMRKCIPDNDKCCRPNLVCSRTHKWCKYVF-NH2; disulfide 2-17, 9-23, 16-30) were 1.43 µM, 15.6 µM and 1.64 µM.
Regarding `CC[C@H](C)[C@@H]1NC(=O)[C@@H]2CSSC[C@@H]3NC(=O)[C@H](C(C)C)NC(=O)[C@H](CC(C)C)NC(=O)[C@H](CC(N)=O)NC(=O)[C@@H]4CCCN4C(=O)[C@H](CCCNC(=N)N)NC(=O)[C@H](CSSC[C@H](NC(=O)[C@@H](N)CC(=O)O)C(=O)N[C@@H](CC(C)C)C(=O)NCC(=O)N(C)[C@@H](Cc4c[nH]c5ccccc45)C(=O)N[C@@H](CCSC)C(=O)N[C@@H](CCCNC(=N)N)C(=O)N[C@@H](CCCCN)C(=O)N2)NC(=O)[C@H](CSSC[C@@H](C(=O)N[C@@H](CCCCN)C(=O)N[C@@H](Cc2ccc(O)cc2)C(=O)N[C@H](C(=O)N[C@@H](Cc2ccccc2)C(N)=O)C(C)C)NC(=O)[C@H](Cc2c[nH]c4ccccc24)NC(=O)[C@H](CCCCN)NC(=O)[C@H](Cc2c[nH]cn2)NC(=O)[C@H]([C@@H](C)O)NC(=O)[C@H](CCCNC(=N)N)NC(=O)[C@H](CO)NC3=O)NC(=O)[C@H](CCCCN)NC(=O)[C@H](CC(=O)O)NC(=O)[C@H](CC(N)=O)NC(=O)[C@H](CC(=O)O)NC(=O)[C@@H]2CCCN2C1=O` [SEQ ID NO: 274], the values for the IC50 at hNav1.7, on hNav1.5 and on hNav1.3 were 0.19 µM, above 5 µM and 0.15 µM, respectively.
Taken in the same sequence, the figures for `CC[C@H](C)[C@@H]1NC(=O)[C@@H]2CSSC[C@@H]3NC(=O)[C@H](C(C)C)NC(=O)[C@H](CC(C)C)NC(=O)[C@H](CC(N)=O)NC(=O)[C@@H]4CCCN4C(=O)[C@H](CCCNC(=N)N)NC(=O)[C@H](CSSC[C@H](NC(=O)[C@@H](N)CC(=O)O)C(=O)N[C@@H](CC(C)C)C(=O)NCC(=O)N[C@@H](c4ccccc4)C(=O)N[C@@H](CCSC)C(=O)N[C@@H](CCCNC(=N)N)C(=O)N[C@@H](CCCCN)C(=O)N2)NC(=O)[C@H](CSSC[C@@H](C(=O)N[C@@H](CCCCN)C(=O)N[C@@H](Cc2ccc(O)cc2)C(=O)N[C@H](C(=O)N[C@@H](Cc2ccccc2)C(N)=O)C(C)C)NC(=O)[C@H](Cc2c[nH]c4ccccc24)NC(=O)[C@H](CCCCN)NC(=O)[C@H](Cc2c[nH]cn2)NC(=O)[C@H]([C@@H](C)O)NC(=O)[C@H](CCCNC(=N)N)NC(=O)[C@H](CO)NC3=O)NC(=O)[C@H](CCCCN)NC(=O)[C@H](CC(=O)O)NC(=O)[C@H](CC(N)=O)NC(=O)[C@H](CC(=O)O)NC(=O)[C@@H]2CCCN2C1=O` [SEQ ID NO: 275] were 0.09 µM, above 5 µM and 0.17 µM.
Taken in the same sequence, the figures for `CC[C@H](C)[C@@H]1NC(=O)[C@@H]2CSSC[C@@H]3NC(=O)[C@H](C(C)C)NC(=O)[C@H](CC(C)C)NC(=O)[C@H](CC(N)=O)NC(=O)[C@@H]4CCCN4C(=O)[C@H](CCCNC(=N)N)NC(=O)[C@H](CSSC[C@H](NC(=O)[C@@H](N)CC(=O)O)C(=O)N[C@@H](CC(C)C)C(=O)NCC(=O)N[C@@H](Cc4ccc(C(=O)O)cc4)C(=O)N[C@@H](CCSC)C(=O)N[C@@H](CCCNC(=N)N)C(=O)N[C@@H](CCCCN)C(=O)N2)NC(=O)[C@H](CSSC[C@@H](C(=O)N[C@@H](CCCCN)C(=O)N[C@@H](Cc2ccc(O)cc2)C(=O)N[C@H](C(=O)N[C@@H](Cc2ccccc2)C(N)=O)C(C)C)NC(=O)[C@H](Cc2c[nH]c4ccccc24)NC(=O)[C@H](CCCCN)NC(=O)[C@H](Cc2c[nH]cn2)NC(=O)[C@H]([C@@H](C)O)NC(=O)[C@H](CCCNC(=N)N)NC(=O)[C@H](CO)NC3=O)NC(=O)[C@H](CCCCN)NC(=O)[C@H](CC(=O)O)NC(=O)[C@H](CC(N)=O)NC(=O)[C@H](CC(=O)O)NC(=O)[C@@H]2CCCN2C1=O` [SEQ ID NO: 276] were 16 µM, 8.12 µM and 5.42 µM.
